From patent publication US9751842B2, “Phthalazine derivatives” (Merck Patent GmbH, priority 2013, dated 2017)
Like-named read-outs stand apart in the source and are kept apart here.

Legend:
His-tagged Parp-1 = biological target: T1, His-tagged Parp-1 (Homo sapiens, UniProt P09874); assay: PARP-1 autoparsylation HTRF assay; assay type: biochemical; conditions: 150 min at 23° C
T1 construct: purchased Enzo Life Sciences GmbH, Lörrach, Germany
Source text: Description of the PARP1 Assay
Biochemical Activity Testing of PARP-1: Autoparsylation Assay
The autoparsylation assay is run in two steps: the enzymatic reaction in which His-tagged Parp-1 transfers biotinylated ADP-ribose/ADP-ribose to itself from biotinylated NAD/NAD as co-substrate and the detection reaction where a time resolved FRET between cryptate labelled anti-His antibody bound to the His tag of the enzyme and Xlent® labelled-streptavidin bound the biotin parsylation residue is analysed. The autoparsylation activity is detectable directly via the increase in HTRF signal.
The autoparsylation assay is performed as 384-well HTRF® (Cisbio, Codolet, France) assay format in Greiner low volume nb 384-well microtiter plates. 35 nM His-tagged Parp-1 (human, recombinant, Enzo Life Sciences GmbH, Lörrach, Germany) and a mixture of 125 nM bio-NAD (Biolog, Life science Inst., Bremen, Germany) and 800 nM NAD as co-substrate are incubated in a total volume of 6 μl (100 mM Tris/HCl, 4 mM Mg-chloride, 0.01% IGEPAL® CA630, 1 mM DTT, 0.5% DMSO, pH 8, 13 ng/μl activated DNA (BPS Bioscience, San Diego, US)) in the absence or presence of the test compound (10 dilution concentrations) for 150 min at 23° C. The reaction is stopped by the addition of 4 μl of the Stop/detection solution (70 nM SA-Xlent® (Cisbio, Codolet, France), 2.5 nM Anti-His-K® (Eu-labelled anti-His, Cisbio, Codolet, France) in 50 mM HEPES, 400 mM KF, 0.1% BSA, 20 mM EDTA, pH 7.0). After 1 h incubation at room temperature the HTRF is measured with an Envision multimode reader (Perkin Elmer LAS Germany GmbH) at excitation wavelength 340 nm (laser mode) and emission wavelengths 615 nm and 665 nm. The ratio of the emission signals is determined. The full value used is the inhibitor-free reaction. The pharmacological zero value used is Olaparib (LClabs, Woburn, US) in a final concentration of 1 μM. The inhibitory values (IC50) are determined using either the program Symyx Assay Explorer® or Condosseo® from GeneData.

[1] = biological target: T2, GST-tagged Tnks-1 (1023-1327 aa) (Homo sapiens, UniProt O95271); assay: TNKS1 activity ELISA (autoparsylation); assay type: biochemical
T2 construct: GST-tagged Tnks-1 (1023-1327 aa, prepared in-house); made in house
T2 sequence (O95271 1023-1327): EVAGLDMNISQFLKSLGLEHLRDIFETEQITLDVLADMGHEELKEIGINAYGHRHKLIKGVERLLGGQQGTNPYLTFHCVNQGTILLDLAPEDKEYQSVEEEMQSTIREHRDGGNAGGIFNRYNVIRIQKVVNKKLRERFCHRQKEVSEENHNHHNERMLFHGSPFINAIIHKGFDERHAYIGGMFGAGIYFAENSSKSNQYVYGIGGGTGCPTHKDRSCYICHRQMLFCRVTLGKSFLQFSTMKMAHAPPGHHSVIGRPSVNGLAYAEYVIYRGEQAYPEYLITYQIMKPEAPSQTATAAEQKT
Experimental: (§1) Description of the TNKS1 and TNKS2 ELISA Assay
(§2) Biochemical Activity Testing of TNKS 1 and 2: Activity ELISA (Autoparsylation Assay)
(§3) For analysis of autoparsylation activity of TNKS 1 and 2 an activity ELISA is performed: In the first step GST tagged TNKS is captured on a Glutathione coated plate. Then the activity assay with biotinylated NAD is performed in the absence/presence of the compounds. During the enzymatic reaction GST tagged TNKS transfers biotinylated ADP-ribose to itself from biotinylated NAD as co-substrate. For the detection streptavidin-HRP conjugate is added that binds to the biotinylated TNKS and is thereby captured to the plates. The amount of biotinylated resp. autoparsylated TNKS is detected with a luminescence substrate for HRP. The level of the luminescence signal correlates directly with the amount of autoparsylated TNKS and therefore with activity of TNKS.
(§4) The activity ELISA is performed in 384 well Glutathione coated microtiter plates (Express capture Glutathione coated plate, Biocat, Heidelberg, Germany). The plates are pre-equilibrated with PBS. Then the plates are incubated with 50 μl 20 ng/well GST-tagged Tnks-1 (1023-1327 aa, prepared in-house), respectively GST-tagged Tnks-2 (873-1166 aa, prepared in-house) in assay buffer (50 mM HEPES, 4 mM Mg-chloride, 0.05% Pluronic F-68, 2 mM DTT, pH 7.7) overnight at 4° C. The plates are washed 3 times with PBS-Tween-20. The wells are blocked by incubation at room temperature for 20 minutes with 50 μl blocking buffer (PBS, 0.05% Tween-20, 0.5% BSA). Afterwards the plates are washed 3 times with PBS-Tween-20. The enzymatic reaction is performed in 50 μl reaction solution (50 mM HEPES, 4 mM Mg-chloride, 0.05% Pluronic F-68, 1.4 mM DTT, 0.5% DMSO, pH 7.7) with 10 μM bio-NAD (Biolog, Life science Inst., Bremen, Germany) as co-substrate in the absence or presence of the test compound (10 dilution concentrations) for 1 hour at 30° C. The reaction is stopped by 3 times washing with PBS-Tween-20. For the detection 50 μl of 20 ng/μl Streptavidin, HRP conjugate (MoBiTec, Göttingen, Germany) in PBS/0.05% Tween-20/0.01% BSA are added and the plates are incubated for 30 minutes at room temperature. After three times washing with PBS-Tween-20 50 μl of SuperSignal ELISA Femto Maximum sensitivity substrate solution (ThermoFisherScientific (Pierce), Bonn, Germany) are added. Following a 1 minute incubation at room temperature luminescence signals are measured with an Envision multimode reader (Perkin Elmer LAS Germany GmbH) at 700 nm. The full value used is the inhibitor-free reaction. The pharmacological zero value used is XAV-939 (Tocris) in a final concentration of 5 μM. The inhibitory values (IC50) are determined using either the program Symyx Assay Explorer® or Condosseo® from GeneData.

[2] = biological target: T3, GST-tagged Tankyrase-1 (1023-1327 aa) (Homo sapiens, UniProt O95271); assay: Tankyrase 1 autoparsylation HTRF enzyme assay; assay type: biochemical
T3 construct: GST-tagged Tankyrase-1 (1023-1327 aa)
T3 sequence (O95271 1023-1327): as above
Experimental: (§5) Biochemical Activity Testing of Tankyrase 1 and 2: Autoparsylation Assay
(§6) The autoparsylation assay is run in two steps: the enzymatic reaction in which GST-tagged Tankyrase-1, resp Tankyrase-2 transferred biotinylated ADP-ribose to itself from biotinylated NAD as co-substrate and the detection reaction where a time resolved FRET between cryptate labelled anti-GST bound to the GST tag of the enzyme and Xlent® labelled-streptavidin bound the biotin-parsylation residue is analysed. The autoparsylation activity was detectable directly via the increase in HTRF signal.
(§7) The autoparsylation assay is performed as 384-well HTRF® (Cisbio, Codolet, France) assay format in Greiner low volume nb 384-well microtiter plates and is used for high throughput screen. 250 nM GST-tagged Tankyrase-1 (1023-1327 aa), respectively about 250 nM GST-tagged Tankyrase-2 (873-1166 aa) and 5 μM bio-NAD (Biolog, Life science Inst., Bremen, Germany) as co-substrate are incubated in a total volume of 5 μl (50 mM HEPES, 4 mM Mg-chloride, 0.05% Pluronic F-68, 1.4 mM DTT, 0.5% DMSO, pH 7.7) in the absence or presence of the test compound (10 dilution concentrations) for 90 min at 30° C. The reaction is stopped by the addition of 1 μl 50 mM EDTA solution. 2 μl of the detection solution (1.6 μM SA-Xlent® (Cisbio, Codolet, France), 7.4 nM Anti-GST-K® (Eu-labelled anti-GST, Cisbio, Codolet, France) in 50 mM HEPES, 800 mM KF, 0.1° A. BSA, 20 mM EDTA, 0.1% CHAPS, pH 7.0) are added. After 1 h incubation at room temperature the HTRF is measured with an Envision multimode reader (Perkin Elmer LAS Germany GmbH) at excitation wavelength 340 nm (laser mode) and emission wavelengths 615 nm and 665 nm. The ratio of the emission signals is determined. The full value used is the inhibitor-free reaction. The pharmacological zero value used is XAV-939 (Tocris) in a final concentration of 5 μM. The inhibitory values (IC50) are determined using either the program Symyx Assay Explorer® or Condosseo® from GeneData.

[3] = biological target: T4, GST-tagged Tankyrase-2 (873-1166 aa) (Homo sapiens, UniProt Q9H2K2); assay: Tankyrase 2 autoparsylation HTRF enzyme assay; assay type: biochemical
T4 construct: GST-tagged Tankyrase-2 (873-1166 aa)
T4 sequence (Q9H2K2 873-1166): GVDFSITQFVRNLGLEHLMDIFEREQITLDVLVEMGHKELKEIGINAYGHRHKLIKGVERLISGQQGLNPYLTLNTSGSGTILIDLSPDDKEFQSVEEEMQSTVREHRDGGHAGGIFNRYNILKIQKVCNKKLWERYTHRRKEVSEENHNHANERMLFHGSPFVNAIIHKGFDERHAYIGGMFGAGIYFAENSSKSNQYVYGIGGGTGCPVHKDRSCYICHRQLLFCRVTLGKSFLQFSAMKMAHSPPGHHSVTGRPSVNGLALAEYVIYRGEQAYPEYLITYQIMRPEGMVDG
Experimental: as §5, §6, §7

[4] = biological target: T5, GST-tagged Tnks-2 (873-1166 aa) (Homo sapiens, UniProt Q9H2K2); assay: TNKS2 activity ELISA (autoparsylation); assay type: biochemical
T5 construct: GST-tagged Tnks-2 (873-1166 aa, prepared in-house); made in house
T5 sequence (Q9H2K2 873-1166): as above
Experimental: as §1, §2, §3, §4

[5] = test system: Tankyrase (Axin2 level in DLD1 cells); assay: Cellular inhibition of Tankyrase, Axin2 Luminex assay in DLD1 cells; assay type: cell-based; conditions: Homo sapiens, DLD-1, 24 hours, Axin2 level increase, read-out: IC50 Cell assay
Experimental: Measurement of Cellular Inhibition of Tankyrase
Since Tankyrases have been described to modulate cellular level of Axin2 (Huang et al., 2009; Nature) the increase of Axin2 level is used as read-out for determination of cellular inhibition of Tankyrases in a Luminex based assay.
Cells of the colon carcinoma cell line DLD1 are plated in 96 well plates with 1.5×10^4 cells per well. Next day, cells are treated with a serial dilution of test compound in seven steps as triplicates with a final DMSO concentration of 0.3%. After 24 hours, cells are lysed in lysis buffer (20 mM Tris/HCl pH 8.0, 150 mM NaCl, 1% NP40, 10% Glycerol) and lysates are cleared by centrifugation through a 96 well filter plate (0.65 μm). Axin2 protein is isolated from cell lysates by incubation with a monoclonal anti-Axin2 antibody (R&D Systems #MAB6078) that is bound to fluorescent carboxybeads. Then, bound Axin2 is specifically detected with a polyclonal anti-Axin2 antibody (Cell Signaling #2151) and an appropriate PE-fluorescent secondary antibody. The amount of isolated Axin2 protein is determined in a Luminex^200 machine (Luminex Corporation) according to the manufacturer's instruction by counting 100 events per well. Inhibition of Tankyrase by test compounds results in higher levels of Axin2 which directly correlates with an increase of detectable fluorescence. As controls cells are treated with solvent alone (neutral control) and with a Tankyrase reference inhibitor IWR-2 (3E-06 M) which refers as control for maximum increase of Axin2. For analysis, the obtained data are normalized against the untreated solvent control and fitted for determination of the EC50 values using the Assay Explorer software (Accelrys).

[6] = activity ELISA, 1 hour at 30° C, read-out: IC50 TNKS1 ELISA
[7] = HTRF autoparsylation, 90 min at 30° C, read-out: IC50 TNKS1 enzyme assay
[8] = HTRF autoparsylation, 90 min at 30° C, read-out: IC50 TNKS2 enzyme assay
[9] = activity ELISA, 1 hour at 30° C, read-out: IC50 TNKS2 ELISA

T1 sequence (P09874 whole entry): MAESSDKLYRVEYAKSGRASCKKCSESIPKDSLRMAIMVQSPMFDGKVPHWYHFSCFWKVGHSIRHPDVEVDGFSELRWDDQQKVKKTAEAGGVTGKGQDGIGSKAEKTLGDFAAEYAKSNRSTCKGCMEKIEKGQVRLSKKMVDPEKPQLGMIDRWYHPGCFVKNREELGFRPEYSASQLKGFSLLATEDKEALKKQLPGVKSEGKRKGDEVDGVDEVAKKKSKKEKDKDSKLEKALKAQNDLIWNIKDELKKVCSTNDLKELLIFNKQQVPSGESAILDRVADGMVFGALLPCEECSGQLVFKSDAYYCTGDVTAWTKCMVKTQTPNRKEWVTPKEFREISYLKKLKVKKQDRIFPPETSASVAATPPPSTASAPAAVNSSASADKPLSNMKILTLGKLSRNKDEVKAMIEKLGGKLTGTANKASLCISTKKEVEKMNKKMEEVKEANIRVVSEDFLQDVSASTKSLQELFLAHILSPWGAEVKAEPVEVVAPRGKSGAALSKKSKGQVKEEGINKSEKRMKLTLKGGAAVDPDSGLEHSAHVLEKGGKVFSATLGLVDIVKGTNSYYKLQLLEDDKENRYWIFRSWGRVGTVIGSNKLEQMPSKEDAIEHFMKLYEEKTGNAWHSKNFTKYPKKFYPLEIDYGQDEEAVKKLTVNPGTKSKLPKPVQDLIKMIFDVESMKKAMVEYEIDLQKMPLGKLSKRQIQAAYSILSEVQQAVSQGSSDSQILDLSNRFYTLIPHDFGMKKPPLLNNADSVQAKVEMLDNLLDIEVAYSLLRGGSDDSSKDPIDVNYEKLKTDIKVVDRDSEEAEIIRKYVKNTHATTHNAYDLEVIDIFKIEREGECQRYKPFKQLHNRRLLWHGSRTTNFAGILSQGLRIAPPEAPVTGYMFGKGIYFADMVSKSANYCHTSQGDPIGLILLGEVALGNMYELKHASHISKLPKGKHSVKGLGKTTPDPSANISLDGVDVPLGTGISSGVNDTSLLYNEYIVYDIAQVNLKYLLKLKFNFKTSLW

Compound | IC50 (His-tagged Parp-1) [µM] | IC50 [1, 6] [nM] | IC50 [2, 7] [µM] | IC50 [3, 8] [µM] | IC50 [4, 9] [nM] | IC50 [1] [nM] | IC50 [2] [µM] | IC50 [3] [µM] | IC50 [4] [nM] | IC50 [5] [µM]
O=C(Cc1cccc(OC(F)(F)F)c1)Nc1nncc2ccccc12 [Compound A5, N-phthalazin-1-yl-2-(3-trifluoromethoxyphenyl)-acetamide] | 3 to 50 | 300 to 3000 | 0.3 to 3 | 3 to 50 | 300 to 3000 |  |  |  |  | 
N#Cc1cccc(CC(=O)Nc2nncc3ccccc23)c1 [Compound A6, 2-(3-cyanophenyl)-N-phthalazin-1-yl-acetamide] | 0.3 to 3 | 300 to 3000 | 0.3 to 3 | 3 to 50 | 300 to 3000 |  |  |  |  | 
O=C(Cc1cccc([N+](=O)[O-])c1)Nc1nncc2ccccc12 [Compound A7, 2-(3-nitrophenyl)-N-phthalazin-1-yl-acetamide] | 0.3 to 3 |  |  |  |  | 300 to 3000 | 0.3 to 3 | 0.3 to 3 | 300 to 3000 | 
O=C(Cc1ccc(OC(F)(F)F)cc1)Nc1nncc2ccccc12 [Compound A8, N-phthalazin-1-yl-2-(4-trifluoromethoxyphenyl)-acetamide] | 3 to 50 | < 300 | < 0.3 | 0.3 to 3 | < 300 |  |  |  |  | 
CC(C)(C)c1ccc(CC(=O)Nc2nncc3ccccc23)cc1 [Compound A9, 2-(4-tert-butylphenyl)-N-phthalazin-1-yl-acetamide] | 3 to 50 | < 300 | 0.3 to 3 | 0.3 to 3 | < 300 |  |  |  |  | 
O=C(Cc1c(Cl)cccc1Cl)Nc1nncc2ccccc12 [Compound A10, 2-(2,6-dichlorophenyl)-N-phthalazin-1-yl-acetamide] | 3 to 50 |  | 3 to 50 | 3 to 50 |  |  |  |  |  | 
CCOc1ccc(CC(=O)Nc2nncc3c(F)cccc23)cc1 [Compound A11, 2-(4-ethoxy-phenyl)-N-(5-fluoro-phthalazin-1-yl)-acetamide] |  |  | 3 to 50 | 3 to 50 |  |  |  |  |  | 
COc1ccc(CC(=O)Nc2nncc3c(F)cccc23)cc1 [Compound A12, N-(5-fluoro-phthalazin-1-yl)-2-(4-methoxy-phenyl)-acetamide] |  |  | 0.3 to 3 | 3 to 50 |  |  |  |  |  | 
O=C(CCC1CCCCC1)Nc1nncc2ccccc12 [Compound A13, 3-cyclohexyl-N-phthalazin-1-yl-propionamide] | 3 to 50 | < 300 | 0.3 to 3 | 0.3 to 3 | < 300 |  |  |  |  | 
O=C(CCc1ccccc1)Nc1nncc2ccccc12 [Compound A14, 3-phenyl-N-phthalazin-1-yl-propionamide] |  | < 300 | < 0.3 | 0.3 to 3 | < 300 |  |  |  |  | 3 to 50
Cc1cccc2c(NC(=O)Cc3ccccc3)nncc12 [Compound A19, N-(5-methyl-phthalazin-1-yl)-2-phenyl-acetamide] |  |  | 3 to 50 | 3 to 50 |  |  |  |  |  | 
COc1ccc(CC(=O)Nc2nncc3c(C)cccc23)cc1 [Compound A21, 2-(4-methoxy-phenyl)-N-(5-methyl-phthalazin-1-yl)-acetamide] |  |  | 3 to 50 | 3 to 50 |  |  |  |  |  | 
